Measured values as given in patent US9504702B2, “Methods of inhibition of protein fucosylation in vivo using fucose analogs” (Seattle Genetics, Inc., priority 2010, dated 2016).
Read-outs that look alike come from different tables or passages of the source.

Legend:
[1] = test system: antibody core fucosylation (antibodies that did not bind to KLH, recovered from protein A column); assay: In vivo antibody fucosylation after ip dosing (Example 1, Study 1), AOL lectin dot blot; conditions: 150 mg/kg ip daily for 7 days; for fucosylation levels of the antibodies reduced, as compared to the untreated controls: non-KLH antibodies from protein A column, dot blot, on average
Protocol: Female BALB/c mice were immunized with Keyhole Limpet Hemocyanin (KLH) 30-60 days prior to starting this study. For the first study, mice were dosed ip with 150 mg/kg of alkynyl fucose (SGD-1887), alkynyl fucose peracetate (SGD-1890), 2-fluorofucose (SGD-2083), or 2-fluorofucose triacetate (SGD-2084) daily for 7 days or were untreated. On day 2, mice were also boosted with KLH. On the day after the last ip dose, mice were terminally bled and serum obtained. For the second study, mice were given 100 mM of 2-fluorofucose (SGD-2083) in their drinking water or given untreated water for 7 days, boosted with KLH, and continued with 100 mM 2-fluorofucose containing drinking water or untreated water for 7 more days before being terminally bled. Serum was then obtained. No mice died in either study. For both studies, serum was passed over a commercial anti-KLH affinity column to obtain KLH-specific polyclonal antibodies. The flow through from the anti-KLH affinity column was passed over a commercial protein A column to obtain the remaining antibodies.
Dot blots: 0.5 μg each of antibodies from untreated and treated animals, as well as standards of antibody cAC10 having known amounts of core fucosylation (0 to 100% fucose), were blotted onto a nitrocellulose membrane. The proteins levels were visualized by Ponceau staining. The blot was probed with biotinylated Aspergillus oryzae L-fucose-specific lectin (AOL) (which binds to fucosylated antibodies) and developed with streptavidin HRP and ECL. Gel loading (visible) and fucose signals (bioluminescence) were measured with an Alpha Innotech camera and quantitated with the machine software.

[2] = test system: antibody core fucosylation (CHO DG44 cell line producing humanized IgG1 anti-CD70 antibody h1F6); assay: Inhibition of antibody core fucosylation in CHO DG44 cell culture producing h1F6; format: cell-based; conditions: day 5, CHO DG44 h1F6; for Inhibition at 50 μM: 50 μM fucose analog, read-out: Inhibition at 50 μM; for inhibition at 1000 µM: 1 mM fucose analog
Protocol: Fucose analogs have been evaluated for their effect on antibody core fucosylation at concentrations of 50 μM and 1 mM generally as described in Published US Patent Application 2009-0317869. Briefly, the protocol was as follows: A CHO DG44 cell line producing a humanized IgG1 anti-CD70 monoclonal antibody, h1F6 (see International Patent Publication WO 06/113909) was cultured at 7.5×10^5 cells per mL in 2 mLs of CHO culture media at 37°, 5% CO2 and shaking at 100 RPM in a 6 well tissue culture plate. Media was supplemented with insulin like growth factor (IGF), penicillin, streptomycin and either 1 mM or 50 μM of the fucose analog. On day 5 post inoculation, the culture was centrifuged at 13000 RPM for 5 minutes to pellet the cells; antibodies were then purified from supernatant.
Antibody purification was performed by applying the conditioned media to protein A resin pre-equilibrated with 1× phosphate buffered saline (PBS), pH 7.4. After washing resin with 20 resin bed volumes of 1×PBS, antibodies were eluted with 5 resin bed volumes of Immunopure IgG elution buffer (Pierce Biotechnology, Rockford, Ill.). A 10% volume of 1M Tris pH 8.0 was added to neutralize the eluted fraction.

[3] = test system: LP-1 cells (IgG heavy chain fucose signal); assay: Fucosylation of LP-1 IgG, SDS-PAGE/Western blot with biotinylated AOL; format: cell-based, human; conditions: for AOL signal on IgG heavy chain, SDS-PAGE/Western blot: 50 μM, LP-1 cells, versus untreated cells; for inhibition of fucosylation of antibody (AOL signal): IgG isolated from LP-1 culture
Excerpt: The ability of different fucose analogs to inhibit the fucosylation of IgG antibodies produced by human myeloma cells as well as the fucosylation of surface proteins of human cancer cell lines was investigated. In a first study, the ability of fucose analogs to inhibit fucosylation of IgG produced by the cell line LP-1, a human multiple myeloma cell line, was investigated. The antibodies produced by, and found in the culture medium of, untreated LP-1 cells were confirmed to be of the IgG type by western blot using anti-human IgG detection (data not shown). This was accomplished by growing 20 mL of LP-1 cells in a T-75 culture flask (250,000 cells/mL) for 5 days at 37° C. in a humidified atmosphere of 5% CO2 in IgG-depleted tissue culture media (90% RPMI with 10% IgG-depleted heat inactivated FBS). Harvest of the cells was by centrifugation (200×g, 4° C., 5 min), and the culture medium was collected. The medium was filtered through a 0.22 μm filter and then incubated with 1 mL of a 50% MabSelect™ protein A resin slurry in PBS at 4° C. with rotation overnight to capture the IgG. The resin slurry was allowed to settle and most of the medium was removed. The resin slurry was transferred with ˜0.5 mL media to two cellulose acetate filter spin cups and was centrifuged at 5000×g for 1 min. The resin bed was then washed 3 times with 0.5 mL PBS. The IgG was eluted with 700 μL of Pierce IgG elution buffer (into with 52 μL of 9 M Tris buffer, pH 9.5 to adjust the pH after elution). The resulting elution was transferred to a 10,000 MW cutoff centrifugal concentrator and the sample was concentrated to approximately 20 μL. 1 μL of the concentrated sample was loaded on an SDS polyacrylamide gel for separation followed by blotting onto nitrocellulose membrane. Staining of the blot for total protein was with Ponceau S and for identification of isotype with anti-human IgG antibody.
Antibody fucosylation can also be determined using a biotin-labeled Aspergillus oryzae L-fucose-specific lectin (AOL), which binds specifically to the α-1,6-linked fucose of the antibody. This method for fucose detection works for both blotted protein that has either been separated by SDS-PAGE or for protein that has been applied to nitrocellulose without separation. The […] signal generated using the AOL-biotin conjugate with streptavidin-HRP binding and ECL detection can be quantitated using an Alpha Innotech FlourChem® Q system.
The three analogs chosen were used at a concentration of 50 μM. These analyses compared the activity of 2-fluorofucose (SGD-2083), 2-fluorofucose peracetate (SGD-2084), and alkynyl fucose peracetate (SGD-1890) with antibody from untreated cells.

SMILES: C#CC(OC(C)=O)[C@@H](OC(C)=O)[C@@H](OC(C)=O)[C@@H](C=O)OC(C)=O (some centres unmarked) [SGD-1890, 5-ethynylarabinose tetraacetate]
- mortality [1]: No mice died
- fucosylation levels of the antibodies reduced, as compared to the untreated controls [1]: about one third
- Inhibition at 50 μM ([2]; 120 h): > 80%
- inhibition at 1000 µM ([2]; 120 h): > 80%
- AOL signal on IgG heavy chain, SDS-PAGE/Western blot [3]: did not show reactivity with the biotinylated AOL
- inhibition of fucosylation of antibody (AOL signal) [3]: did

SMILES: C[C@H](O)[C@@H](O)[C@@H](O)[C@H](F)C=O [SGD-2083, 2-fluoro-2-deoxy fucose]
- fucosylation levels of the antibodies reduced, as compared to the untreated controls [1]: about one third
- Inhibition at 50 μM ([2]; CHO-DG44, 120 h): > 80%
- inhibition at 1000 µM ([2]; CHO-DG44, 120 h): > 80%
- AOL signal on IgG heavy chain, SDS-PAGE/Western blot [3]: no apparent change in the AOL signal
- inhibition of fucosylation of antibody (AOL signal) [3]: did not inhibit fucosylation of antibody
